Measurements taken from paper PMC12389006, “In Vitro and In Vivo Evaluation of Alectinib-Loaded Dendrimer Nanoparticles as a Drug Delivery System for Non-Small Cell Lung Carcinoma” (Pharmaceutics, 2025).
Like-named read-outs stand apart in the source and are kept apart here.

Experiments:
[1] = Pharmacokinetic study in rats, LC-MS/MS of plasma; assay type: in vivo, Wistar rats; conditions: rat, 20 mg/kg oral; for AUC0-t: 20 mg/kg
Method: Quantification and identification of Alectinib were performed using liquid chromatography coupled with mass spectrometry (LC/MS), employing rosuvastatin as the internal standard (IS). […] Detection was carried out with an API-3000 triple quadrupole mass spectrometer (LCMS-2010A, Shimadzu, Japan) featuring an electrospray ionization (ESI) source operated in positive ion mode. […] Detection was achieved using multiple reaction monitoring (MRM) for specific m/z transitions. […] Prior to the experiment, the animals were fasted overnight with free access to water and were marked on the tail for individual identification. The rats were randomly divided into two groups. […] Blood samples were collected from the tail after warming for 30 s using a hot pad to facilitate sampling. […] Sample preparation was carried out using the liquid–liquid extraction (LLE) technique. Frozen plasma samples were thawed at room temperature, vortexed to ensure uniform mixing, and combined with 500 µL acetonitrile (ACN) as diluent, 300 µL plasma, and 50 µL rosuvastatin as the internal standard. The mixture was vortexed for 2 min, centrifuged at 4000 rpm for 15 min, and 200 µL of the supernatant was transferred into LC-MS insert vials. Subsequently, 20 µL of the processed sample was analyzed using LC-MS/MS for quantification and pharmacokinetic evaluation.

nB1 (neuroblastoma) = conditions: cited from earlier work
A549 cells [2] = tested on: A549 cells; parameters: method as in Ata et al.; conditions: ref Ata et al.; cited from earlier work
[3] = pH 1.2 and 2.5; cited from earlier work
NCI-H2228 (lung cancer) = conditions: cited from earlier work
A549 cells [4] = assay: Scratch-wound assay for cell migration; assay type: cell-based, human; conditions: A549, 72 h
Method: After the cells reached full confluence and formed a uniform monolayer, a scratch approximately 1 mm wide was created across the cell layer using a sterile 200 μL micropipette tip. The wells were then gently washed with phosphate-buffered saline (PBS) to remove cellular debris. […] To evaluate wound closure, images of the scratch area were captured at the start of the experiment (0 h) and after 72 h of treatment. Image analysis was performed using ImageJ® software (version 1.4.3.67, Symmetry Software) to measure the wound area and assess cell migration quantitatively

[5] = parameters: method as in PMID 36015320; conditions: cited from earlier work
[6] = tested on: H460 large lung cancer cells; assay type: in vivo; conditions: H460 xenograft mice, 20 mg/kg
Method: This study involved 24 male BALC mice, aged 5 weeks and weighing 20 ± 2 g, housed under controlled environmental conditions (temperature: 25.2 °C, humidity: 60 ± 5%, 12 h light–dark cycle) with ad libitum access to standard rodent chow and autoclaved water. […] Human lung large-cell carcinoma (H460) cells were cultured in RPMI 1640 medium, prepared through trypsinization and centrifugation, and underwent viability testing with Trypan blue exclusion, then were suspended in ECM Matrigel®. After 21 days of immunosuppression with 5 mg/kg dexamethasone administered intraperitoneally each mouse was subcutaneously injected in the right flank with 2.5 × 10^6 viable H460 cells. Tumor growth was monitored for 14 days using caliper measurements.
To establish an immunosuppressed xenograft model, dexamethasone (5 mg/kg) was administered to all mice for 21 days to suppress their immune response (Figure S8). Following immunosuppression, 2.5 × 10^6 H460 large lung cancer cells were subcutaneously injected into the mice, and tumor growth was monitored every day.

[7] = tested on: A549 lung cancer cell line; assay: MTT cytotoxicity assay; assay type: cell-based; conditions: Homo sapiens, A549, 72 h
Method: The A549 cell line, composed of human alveolar basal epithelial adenocarcinoma cells, was used for the in vitro evaluation. Cells were obtained from ATCC through the Faculty of Pharmacy […] University. To maintain the A549 lung cancer cell line, Roswell Park Memorial Institute (RPMI) was employed. The medium was supplemented with 2 mL of L-glutamine, 50 mL of fetal bovine serum (FBS), and 5 mL of penicillin-streptomycin. The frozen A549 cell vials, stored in liquid nitrogen at approximately -196 °C, were quickly thawed at 37 °C in a water bath. The contents were then diluted with 10 mL of pre-warmed media and then centrifuged at 1500 rpm for 10 min. After discarding the supernatant, the tube was gently agitated to disperse the cells, and fresh medium (15 mL) was added. […] Their confluency level was maintained within the ideal range of 80-90%. To assess cell viability, a 1:1 mixture of 50 μL of Trypan blue stain and 50 μL of cell solution was prepared in an Eppendorf tube. Then, 5 × 10^3 cells were inoculated into individual wells of 96-well microplates using 100 μL of medium. […] Negative control wells received 0.1% DMSO, while blank wells were filled with RPMI medium without cells. […] The absorbance of the formazan solution in each well was promptly quantified at 590 nm utilizing a 96-well plate reader manufactured by Biotech, and the IC50 values were calculated according to Equation (2).

[8] = tested on: resistance-induced overexpressed TGF-α HGF cells; parameters: method as in PMID 31857951; conditions: cited from earlier work
[9] = In vitro drug release, dialysis method in PBS; assay type: physicochemical; conditions: pH 6.8 PBS, 1.5% SLS, 37 °C
Method: In vitro drug release studies were performed using the dialysis method. A drug release study was conducted in vitro to measure the amount of drug released from the complex. […] The dissolution study was conducted using the USP II apparatus (paddle) under the following conditions: a stirring speed of 100 rpm, a temperature of 37.0 ± 0.5 °C, and volume of release media of 200 mL. The NP samples were placed in a plastic tube sealed with a dialysis membrane with a molecular weight cut-off (MWCO) of 14,000 Da, which was previously soaked in either buffer for 24 h. […] At predetermined time intervals, 1 mL aliquots were withdrawn and promptly replaced with fresh media. The collected samples were filtered by a 0.22 µm filter membrane and were subsequently injected into the HPLC system at a wavelength of 340 nm.

[10] = parameters: method as in PMID 36015320; conditions: cited from earlier work; remark: listed apart in the source
KARPAS 299 = conditions: cited from earlier work

SMILES: CCc1cc2c(cc1N1CCC(N3CCOCC3)CC1)C(C)(C)c1[nH]c3cc(C#N)ccc3c1C2=O.Cl [Alectinib, 9-ethyl-6,6-dimethyl-8-[4-(morpholine-4-yl)piperidin-1-yl]-11-oxo-6,11-dihydro-5H-benzo[b]carbazole-3-carbonitrile hydrochloride]
- AUC(0-inf) ([1]; male, Wistar, plasma): 11800 ng·h/mL
- half-life ([1]; male, Wistar, plasma): 15.4 ± 1.6 h
- k el ([1]; male, Wistar, plasma): 1.25e-05 s⁻¹
- AUC0-t ([1]; male, Wistar, plasma, po, read-out: AUC0-t): 9840 ng·h/mL
- C-max [1]: 313.83 ± 150.83 ng/mL
- T-max [1]: 9.33 ± 1.1 h
- absorption rate constant (Ka) ([1]; assumption of linear absorption): 0.43 h⁻¹
- AUC0-t ([1]; listed as Free Alectinib): 9842.03 ± 3986 ng·h/mL
- IC50 (nB1 (neuroblastoma)): 4.5 nM
- IC50 (A549 cells [2]): 9.63 µg/mL
- stability at low pH [3]: degradation of Alectinib at low pH
- IC50 (NCI-H2228 (lung cancer)): 53 nM
- scratch assay outcome in words (A549 cells [4]): completely eradicated the cells
- permeability [5]: 250 ×10⁻⁶ cm/s
- tumor outcome in words after 17 days of treatment [6]: minimal amount of residual tumor tissue
- tumor regression / reduction after 17 days of treatment [6]: 75%
- IC50 [7]: 4190 nM
- IC50 [8]: 38.2 nM
- Alectinib released over 48 h [9]: 11.1% ± 0.11
- absolute bioavailability [10]: 37%
- IC50 (KARPAS 299): 3 nM
